Assays:
[1] = system: Respiratory syncytial virus; experiment: Antiviral activity against Respiratory syncytial virus (RSV)-A2-eGFP infected in human HeLa cells assessed as eGFP expression measured after 3 days by RSV Cell-based infection assay; type: functional, organism-based; settings: 72 h
[2] = Metabolic stability in human hepatocytes assessed as intrinsic clearance per 10^6 cells at 1 uM measured upto 180 mins by LC-MS/MS analysis; type: ADME, cell-based, Hepatocyte; settings: read-out: CLH
[3] = Inhibition of RSV RNA polymerase assessed as RNA products using […] template by SPA primer extension enzymatic assay; parameters: species or system Respiratory syncytial virus
[4] = system: Respiratory syncytial virus; experiment: Antiviral activity against Respiratory syncytial virus (RSV) infected in human APC-126 cells assessed as replicon by measuring protein adjusted effective concentration in the presence of 40% human serum measured after 3 days by Renilla Glo assay; type: functional, organism-based; settings: 72 h
[5] = Cytotoxicity against human HeLa cells measured after 3 days by ATPlite kit assay; type: toxicity, cell-based; settings: time 3 day
[6] = Metabolic stability in rat hepatocytes assessed as intrinsic clearance per 10^6 cells at 1 uM measured upto 180 mins by LC-MS/MS analysis; type: ADME, cell-based, Hepatocyte; settings: read-out: CLH
[7] = Clearance in Sprague-Dawley rat at 1.25 mg/kg, iv; type: ADME, organism-based; settings: in vivo
[8] = Inhibition of RSV RNA polymerase assessed as RNA products using […] template by Flashplate primer extension enzymatic assay; parameters: species or system Respiratory syncytial virus

| Compound | EC50 [1] [µM] | hepatocyte CLint at 1 µM [2] [µL/min/1e6 cells] | IC50 [3] [µM] | EC50 [4] [µM] | CC50 at 72 h [5] [µM] | hepatocyte CLint at 1 µM [6] [µL/min/1e6 cells] | clearance [7] [L/h/kg] | IC50 [8] [µM] |
| --- | --- | --- | --- | --- | --- | --- | --- | --- |
| CCc1cc2cc(C(=O)NC[C@](O)(c3cc(C(C)(C)O)c(F)c(-c4ccc(F)cc4)n3)C(F)(F)F)cc(OC)c2nn1 | 0.0032 | 14 | 0.00037 | 0.041 | 21.8 | – | – | – |
| COc1cc(C(=O)NC[C@](O)(c2cc(C(C)(C)O)c(F)c(-c3ccc(F)cc3)n2)C(F)(F)F)cc2cc(F)nnc12 | 0.0068 | < 1.9 | 0.00131 | 0.33 | 17.3 | 93 | – | – |
| COc1cc(C(=O)NC[C@](O)(c2cc3c(c(-c4ccc(F)cc4)n2)OC[C@]3(C)NS(C)(=O)=O)C(F)(F)F)ccc1OC[C@@H](C)O | 0.012 | 11 | 0.0048 | – | 54.3 | 28 | 2.04 | – |
| COc1cc(C(=O)NC[C@](O)(c2cc3c(c(-c4ccc(F)cc4)n2)OC[C@]3(C)NS(C)(=O)=O)C(F)(F)F)cc2nc(N)sc12 | 0.0014 | 12 | 0.00052 | – | 13.6 | 72 | 4.04 | – |
| COc1cc(C(=O)NC[C@](O)(c2cc3c(c(-c4ccc(F)cc4)n2)OC[C@]3(C)NS(C)(=O)=O)C(F)(F)F)cc2cccnc12 | 0.0053 | 3 | 0.0007 | – | 10.2 | 73 | 3.65 | – |
| COc1cc(C(=O)NC[C@](O)(c2cc(C(C)(C)O)c(F)c(-c3ccc(F)cc3)n2)C(F)(F)F)cc2cc(C3CC3)nnc12 | 0.0026 | < 1.2 | 0.00117 | 0.225 | 8.8 | – | – | – |
| COc1cc(C(=O)NC[C@](O)(c2cc(C(C)(C)O)c(F)c(-c3ccc(F)cc3)n2)C(F)(F)F)cc2cc(C)cnc12 | 0.0045 | 6.6 | 0.00042 | 0.043 | 14.6 | 28 | – | – |
| COc1cc(C(=O)NC[C@](O)(c2cc(C(C)(C)O)c(F)c(-c3ccc(F)cc3)n2)C(F)(F)F)cc2cc(C(F)F)nnc12 | 0.0035 | < 1.9 | 0.0004 | 0.19 | 18.3 | 6.9 | – | – |
| COc1cc(C(=O)NC[C@](O)(c2nc(-c3ccc(F)cc3)c(Cl)c(C(C)(C)O)c2F)C(F)(F)F)cc2cc(C)cnc12 | 0.0048 | – | 0.0029 | – | 45.8 | – | – | – |
| COc1cc(C(=O)NC[C@](O)(c2cc3c(c(-c4ccc(F)cc4)n2)OC[C@]3(C)NC(C)=O)C(F)(F)F)cc2cccnc12 | 0.015 | 8.8 | 0.0043 | – | 12.7 | 11 | 1.14 | – |
| COc1nc2c(OC)cc(C(=O)NC[C@](O)(c3cc(C(C)(C)O)c(F)c(-c4ccc(F)cc4)n3)C(F)(F)F)cc2cc1C | 0.034 | – | 0.00152 | 1.69 | 31 | – | – | – |
| CC(=O)N[C@@]1(C)COc2c1cc([C@@](O)(CNC(=O)c1cc(OC3CC3)c3ncc(F)cc3c1)C(F)(F)F)nc2-c1ccc(F)cc1 | 0.022 | < 1.9 | 0.0036 | – | 14 | – | 0.151 | – |
| COc1cc(C(=O)NC[C@](O)(c2cc(C(C)(C)O)c(F)c(-c3ccc(F)cc3)n2)C(F)(F)F)cc2cc(Cl)nnc12 | 0.001 | < 1.2 | 0.00022 | 0.11 | 9.9 | 13 | – | – |
| COc1cc(C(=O)NC[C@](O)(c2nc(-c3ccc(F)cc3)c(F)c(C(C)(C)O)c2F)C(F)(F)F)cc2cc(C)cnc12 | 0.0026 | 9.7 | 0.00025 | – | 43 | – | – | – |
| COc1cc(C(=O)NC[C@](O)(c2cc3c(c(-c4ccc(F)cc4)n2)OC[C@]3(C)NC(C)=O)C(F)(F)F)ccc1OC[C@@H](C)O | 0.014 | – | 0.023 | – | 73.2 | 13 | – | – |
| COc1cc(C(=O)NC[C@](O)(c2cc(C(C)(C)O)c(F)c(-c3ccc(F)cc3)n2)C(F)(F)F)cc2cc(OC(F)F)nnc12 | 0.0051 | – | 0.00091 | 1.24 | 8.9 | – | – | – |
| COc1cc(C(=O)NC[C@](O)(c2cc(C(C)(C)O)c(F)c(-c3ccc(F)cc3)n2)C(F)(F)F)cc2cc(C)c(F)nc12 | 0.0038 | 4.3 | 0.0011 | 0.048 | 13.1 | 57 | – | – |
| COc1cc(C(=O)NC[C@](O)(c2cc3c(c(-c4ccc(F)cc4)n2)OC[C@]3(C)NS(C)(=O)=O)C(F)(F)F)cc2cc(C)cnc12 | 0.0013 | 3.7 | 0.00036 | – | 11.4 | – | – | – |
| CC(=O)N[C@@]1(C)COc2c1cc([C@@](O)(CNC(=O)c1cc(OC3CC3)c3ncccc3c1)C(F)(F)F)nc2-c1ccc(F)cc1 | 0.019 | < 1.9 | 0.0037 | – | 46.8 | 11 | 0.368 | – |
| COc1cc(C(=O)NC[C@](O)(c2cc3c(c(-c4ccc(F)cc4)n2)OC[C@]3(C)NC(C)=O)C(F)(F)F)cc2cc(C)cnc12 | 0.0027 | 4.9 | 0.00083 | – | 14.5 | 54 | 0.816 | – |
| COc1cc(C(=O)NC[C@](O)(c2cc(C(C)(C)O)c(Cl)c(-c3ccc(F)cc3)n2)C(F)(F)F)cc2cc(C)cnc12 | 0.0017 | 4.3 | 0.0014 | – | 21.7 | – | – | – |
| COc1cc(C(=O)NC[C@](O)(c2cc(C(C)(C)O)c(F)c(-c3ccc(F)cc3)n2)C(F)(F)F)cc2cccnc12 | 0.011 | 4.1 | 0.00063 | 0.31 | 16 | 120 | – | – |
| COc1cc(C(=O)NC[C@](O)(c2cc(C(C)(C)O)c(F)c(-c3ccc(F)cc3)n2)C(F)(F)F)cc2cc(C3CC3)cnc12 | 0.054 | < 1.9 | – | 2.17 | 12.9 | – | – | 0.002 |
| COc1cc(C(=O)NC[C@](O)(c2cc(C(C)(C)O)c(F)c(-c3ccc(F)cc3)n2)C(F)(F)F)cc2cc(C(F)F)cnc12 | 0.0036 | < 1.9 | – | 0.097 | 13.2 | 19 | – | 0.0017 |
| COc1cc(C(=O)NC[C@](O)(c2cc(C(C)(C)O)c(F)c(-c3ccc(F)cc3)n2)C(F)(F)F)cc2cc(C(F)(F)F)cnc12 | 0.026 | < 1.9 | – | 0.802 | 12.6 | < 1.9 | – | 0.00072 |
| COc1cc(C(=O)NC[C@](O)(c2cc(C(C)(C)O)c(F)c(-c3ccc(F)cc3)n2)C(F)(F)F)cc2cc(CF)cnc12 | 0.0125 | – | – | – | 39.8 | – | – | 0.00382 |
